In patent publication US8822526B2, “Synergistic pharmaceutical combination for the treatment of cancer” (Piramal Enterprises Limited, priority 2007, dated 2014):

What was measured:
COX-2 = test: Western blot analysis using COX-2 antibody; assay type: in vivo, human; settings: H-460 tumor xenograft; FIG. 9
From the text: FIG. 9 indicates western blot analysis using COX-2 antibody.
Therefore, NFκB mediated inhibition of COX-2 by the compound A could be involved in suppressing tumor growth and doxorubicin induced chemoresistance in human non-small cell lung carcinoma (H-460) tumor xenograft.

[1] = test system: human non-small cell lung carcinoma H-460; test: Annexin V-FITC staining (detection of early apoptosis); assay type: cell-based; settings: doxorubicin 100 nM 24 hours; compound A 1200 nM 96 hours; combination doxorubicin 24 hours followed by compound A 96 hours
Description: Annexin V-FITC is a sensitive probe for identifying apoptotic cells. During early apoptosis the membrane phospholipid phosphotidyl serine (PS) is translocated from the inner to the outer leaflet of the plasma membrane, thereby exposing PS to the external cellular environment. Annexin V is a 35-36 kDa Calcium phospholipid binding protein that has a high affinity for PS and binds to cells with exposed PS. […] The human non-small cell lung carcinoma H-460 was seeded in 25 mm^3 tissue culture flasks. […] The control cells were left untreated for 120 hours. Medium containing floating cells were collected and pooled with the adherent cells after harvesting with trypsin at the different time points. The cells were washed twice with cold PBS with centrifugation at 1000 rpm for 10 minutes. The cell pellet was resuspended in 1× binding buffer (10 mm HEPES pH 7.4, 140 mM NaCl, 2.5 mM CaCl2) at a concentration of 1×10^6 cells/mL. 100 μl of the solution (1×10^5 cells) were stained with Annexin V-FITC and Propidium Iodide. The cells were incubated for 15 minutes at room temperature in the dark and the sample was analysed by flow cytometry. A Becton Dickinson FACS Calibur flow cytometer was used for these studies in accordance with the manufacturer's recommendations. The argon ion laser set at 488 nm was used as an excitation source. […] If the cells even after the termination of compound exposure continue to go into apoptosis, they would stain positive for annexin. The cells once in early apoptosis are committed to programmed cell death and at a point of no return.

[2] = test system: pancreatic cells (Panc-1); test: Analysis of cell cycle distribution and flow cytometry (sub G1 apoptosis); assay type: cell-based, human; settings: FIG. 3: 70 nM gemcitabine alone (24 hours); 300 nM compound A alone (72 hours); combination 70 nM gemcitabine (24 hours) followed by 300 nM compound A (72 hours)
[3] = test system: human pancreatic (Panc-1) cell line; test: In vitro cytotoxicity assay (MTS); assay type: cell-based
NCI-H460/R = settings: J. Chemother., 2006 February; 18(1) 66-73; cited from earlier work

Row | SMILES | COX-2 levels (western blot) (COX-2) | Annexin + ve (%) (cells in early apoptosis) [1] | Annexin and PI + ve (%) (cells in early to late apoptosis) [1] | Live cells (%) (healthy cells) [1] | PI + ve (%) (dead cells) [1] | apoptosis (sub G1 phase) [2] [%] | IC30 concentration after 48 hours treatment ([3]; Panc-1 cells, 48 hours treatment) [nM] | % Cytotoxicity ([3]; complete medium 24 hours, then compound A 300 nM 72 hours) [%] | resistance of NCI-H460/R to doxorubicin (NCI-H460/R) [fold]
1 | CN1CC[C@@H](c2c(O)cc(O)c3c(=O)cc(-c4ccccc4Cl)oc23)[C@@H]1CO.Cl [Compound A, (+)-trans-2-(2-Chloro-phenyl)-5,7-dihydroxy-8-(2-hydroxymethyl-1-methyl-pyrrolidin-3-yl)-chromen-4-one hydrochloride] | low levels of COX-2 | 38.5 | 8.2 | 53 | 0.3 | 4.3 | ~300 | 34 | –
2 | COc1cccc2c1C(=O)c1c(O)c3c(c(O)c1C2=O)C[C@@](O)(C(=O)CO)C[C@@H]3O[C@H]1C[C@H](N)[C@H](O)[C@H](C)O1 [Doxorubicin] | strongly induced COX-2 | 30.4 | 8.6 | 60 | 1 | – | – | – | 96.2
